Reference: patent US4379784A, “Pyrimidinyl ureido penicillins” (Dr. Karl Thomae Gesellschaft mit beschrankter Haftung, priority 1980, dated 1983)
Converted amounts (≈) assume the structure as drawn.

Assays:
[1] = tested on: Proteus mirabilis Hamburgensis; assay: series dilution test in the microtiter system (MIC), Proteus mirabilis Hamburgensis; assay type: cell-based; conditions: 18 to 20 hours at 37° C., liquid medium, read-out: minimum inhibitory concentrations (MIC), Prot. mirabilis Hbg
Protocol: (§1) The method of the series dilution test in the microtiter system was used. The substances were tested for bacteriostasis in a liquid medium. The bacteriostatic activity was tested at the following concentrations:
(§2) A nutrient medium having the following composition was used: 10 gm of peptone, 8 gm of meat extract oxoid, 3 gm of sodium chloride, and 2 gm of sec. sodium phosphate were made up to […] with distilled water (pH 7.2 to 7.4). The age of the primary cultures was about 20 hours.
(§3) The bacterial suspension was adjusted using the photometer (according to "Eppendorf", test tube diameter 14 mm, filter 546 nm) by reference to the turbidity of a barium sulfate comparison suspension which was produced by a barium sulfate suspension formed by the addition of 3.0 ml of 1% barium chloride solution to 97 ml of 1% sulfuric acid. After adjustment, Streptococcus aronson was diluted in the ratio 1:15 and the other test pathogens were diluted in the ratio 1:1500 with a common salt solution.
(§4) 16 mg of the test substance were weighed in 10 ml measuring flasks and solvent was added up to the mark. Further dilutions in the series were made with distilled water or the solvent in question.
(§5) The depressions in the microtiter plates were filled with 0.2 ml of nutrient medium, 0.01 ml of the corresponding diluted substance and a drop of bacterial suspension (0.01 ml) and incubated for 18 to 20 hours at 37° C. A solvent check was carried out continuously at the same time.
(§6) The reading was taken macroscopically, and the respective limiting concentration (=the lowest concentration still having bacteriostatic activity) was determined.
(§7) The following were used as test organisms:
(§8) Staphylococcus aureus SG 511, Escherichia coli ATCC 11 775, Pseudomonas aeruginosa Hamburgensis and Pseudomonas aeruginosa BC 19, Serratia Marcescens ATCC 13 880, Klebsiella pneumoniae ATCC 10 031 and BC 6, Proteus mirabilis Hamburgensis, Proteus rettgeri BC 7, Enterobacter cloacae ATCC 13 047.
(§9) Table 1 below lists the minimum inhibitory concentrations (MIC) in μgm/ml determined for typical representatives of the compounds of the present invention. These are the sodium salts of compounds of the formula I where A=p-hydroxyphenyl and R has the indicated meanings.

[2] = tested on: Pseudomonas aeruginosa BC 19; assay: series dilution test in the microtiter system (MIC), Ps. aeruginosa BC 19; assay type: cell-based; conditions: BC19, 18 to 20 hours at 37° C., liquid medium, read-out: minimum inhibitory concentrations (MIC), Pseud. aerug. BC 19
Protocol: as §1, §2, §3, §4, §5, §6, §7, §8, §9

[3] = tested on: Klebsiella pneumoniae BC 6; assay: series dilution test in the microtiter system (MIC), Klebsiella pneumoniae BC 6; assay type: cell-based; conditions: BC6, 18 to 20 hours at 37° C., liquid medium, read-out: minimum inhibitory concentrations (MIC), Klebs. pneum. BC 6
Protocol: as §1, §2, §3, §4, §5, §6, §7, §8, §9

[4] = tested on: Enterobacter cloacae ATCC 13 047; assay: series dilution test in the microtiter system (MIC), Enterobacter cloacae ATCC 13047; assay type: cell-based; conditions: 18 to 20 hours at 37° C., liquid medium, read-out: minimum inhibitory concentrations (MIC), Eb.cloacae ATCC 13047
Protocol: as §1, §2, §3, §4, §5, §6, §7, §8, §9

[5] = tested on: Pseudomonas aeruginosa BC 19; assay: in vivo experimental Pseudomonas infection in mice; parameters: species or system mice (female, NMRI strain); conditions: BC19, sc, 168 h, subcutaneous, three treatments 1, 3 and 5 hours post-infectionem, 50% survival, 7 days observation, read-out: ED50, Pseud. Infection
Protocol: (§10) A number of the compounds of the present invention were tested in vivo against experimental infections in mice. E. coli ATCC 11775 and Pseudomonas aeruginosa BC 19 were used as the pathogenic bacteria. An intraperitoneal infection was produced with 0.2 ml of a 5% mucin suspension of the bacteria. This corresponds to about 1.4×10^6 E. coli bacteria and 1.3×10^6 Pseudomonas bacteria per mouse. Female mice of the NMRI strain were divided into groups of 10 animals; two groups were untreated, the other groups were treated subcutaneously with various doses of the penicillins of the present invention, to determine the ED50 (dose at which 50% of the animals survived). For the E. coli infection, one treatment was given*. For the Pseudomonas infection, three treatments were given (1, 3 and 5 hours post-infectionem). In both cases, the observation period was 7 days.

[6] = tested on: Staphylococcus aureus SG 511; assay: series dilution test in the microtiter system (MIC), S. aureus SG 511; assay type: cell-based; conditions: SG511, 18 to 20 hours at 37° C., liquid medium, read-out: minimum inhibitory concentrations (MIC), S.aureus SG 511
Protocol: as §1, §2, §3, §4, §5, §6, §7, §8, §9

[7] = tested on: Serratia Marcescens ATCC 13 880; assay: series dilution test in the microtiter system (MIC), Serratia marcescens ATCC 13880; assay type: cell-based; conditions: 18 to 20 hours at 37° C., liquid medium, read-out: minimum inhibitory concentrations (MIC), Serrat. marcesc. ATCC 13880
Protocol: as §1, §2, §3, §4, §5, §6, §7, §8, §9

[8] = tested on: Escherichia coli ATCC 11 775; assay: series dilution test in the microtiter system (MIC), E. coli ATCC 11775; assay type: cell-based; conditions: 18 to 20 hours at 37° C., liquid medium, read-out: minimum inhibitory concentrations (MIC), E.Coli ATCC 11775
Protocol: as §1, §2, §3, §4, §5, §6, §7, §8, §9

Proteus rettgeri BC 7 = assay: series dilution test in the microtiter system (MIC), Proteus rettgeri BC 7; assay type: cell-based; conditions: Providencia rettgeri, BC7; 18 to 20 hours at 37° C., liquid medium; read-out: minimum inhibitory concentrations (MIC), Prot. geri BC
Protocol: as §1, §2, §3, §4, §5, §6, §7, §8, §9

E. coli ATCC 11775 = assay: in vivo experimental E. coli infection in mice; parameters: species or system mice (female, NMRI strain); conditions: Escherichia coli, ATCC11775, sc, 168 h; subcutaneous, one treatment 1 hour post infectionem; 50% survival, 7 days observation
Protocol: as §10, with “post-infectionem). *1 hour post infectionem” for “post-infectionem).”

[9] = tested on: Klebsiella pneumoniae ATCC 10 031; assay: series dilution test in the microtiter system (MIC), Klebsiella pneumoniae ATCC 10031; assay type: cell-based; conditions: 18 to 20 hours at 37° C., liquid medium, read-out: minimum inhibitory concentrations (MIC), Klebs.pneum. ATCC 10031
Protocol: as §1, §2, §3, §4, §5, §6, §7, §8, §9

[10] = tested on: Pseudomonas aeruginosa Hamburgensis; assay: series dilution test in the microtiter system (MIC), Ps. aeruginosa Hamburgensis; assay type: cell-based; conditions: 18 to 20 hours at 37° C., liquid medium, read-out: minimum inhibitory concentrations (MIC), Pseud. aerug. Hbg.
Protocol: as §1, §2, §3, §4, §5, §6, §7, §8, §9

Row | MIC [1] [µg/mL] | MIC [2] [µg/mL] | MIC [3] [µg/mL] | MIC [4] [µg/mL] | MIC [6] [µg/mL] | MIC [7] [µg/mL] | MIC [8] [µg/mL] | MIC (Proteus rettgeri BC 7) [µg/mL] | MIC [9] [µg/mL] | MIC [10] [µg/mL] | Structure (SMILES) | ED50 [5] [mg/kg] | ED50 (E. coli ATCC 11775) [mg/kg]
1 | 2 (≈ 4.33 µM) | 8 (≈ 17.3 µM) | 32 (≈ 69.3 µM) | 32 (≈ 69.3 µM) | 0.5 (≈ 1.08 µM) | 4 (≈ 8.67 µM) | 8 (≈ 17.3 µM) | 8 (≈ 17.3 µM) | 32 (≈ 69.3 µM) | 8 (≈ 17.3 µM) | CC1(C)S[C@@H]2[C@H](NC(=O)[C@H](NC(=O)N3CCNC3=O)c3ccccc3)C(=O)N2[C@H]1C(=O)O [J, azlocillin, reference compound] | > 100 | > 100
2 | 0.06 (≈ 0.0779 µM) | 1 (≈ 1.3 µM) | 2 (≈ 2.6 µM) | 1 (≈ 1.3 µM) | 0.5 (≈ 0.65 µM) | 0.25 (≈ 0.325 µM) | 0.25 (≈ 0.325 µM) | 0.5 (≈ 0.65 µM) | 2 (≈ 2.6 µM) | 2 (≈ 2.6 µM) | CC1(C)S[C@@H]2[C@H](NC(=O)C(NC(=O)Nc3cnc(Nc4ccc(S(=O)(=O)N5CCN(C=O)CC5)cc4)nc3O)c3ccc(O)cc3)C(=O)N2[C@H]1C(=O)O (some centres unmarked) [H] |  | 

The remaining lines, values behind:

Row | Structure (SMILES) | MIC [1] [µg/mL] | MIC [2] [µg/mL] | MIC [3] [µg/mL] | MIC [4] [µg/mL] | MIC [6] [µg/mL] | MIC [7] [µg/mL] | MIC [8] [µg/mL] | MIC (Proteus rettgeri BC 7) [µg/mL] | MIC [9] [µg/mL] | MIC [10] [µg/mL] | ED50 [5] [mg/kg] | ED50 (E. coli ATCC 11775) [mg/kg]
3 | CC1(C)S[C@@H]2[C@H](NC(=O)C(NC(=O)Nc3cnc(Nc4ccc(S(=O)(=O)NCCO)cc4)nc3O)c3ccc(O)cc3)C(=O)N2[C@H]1C(=O)O (some centres unmarked) [F] | 0.06 (≈ 0.0837 µM) | 1 (≈ 1.4 µM) | 4 (≈ 5.58 µM) | 2 (≈ 2.79 µM) | 0.5 (≈ 0.698 µM) | 0.13 (≈ 0.181 µM) | 0.25 (≈ 0.349 µM) | 0.5 (≈ 0.698 µM) | 2 (≈ 2.79 µM) | 2 (≈ 2.79 µM) | 10 to 20 | ~5
4 | CC1(C)S[C@@H]2[C@H](NC(=O)C(NC(=O)Nc3cnc(Nc4ccc(S(=O)(=O)NC5=NCCS5)cc4)nc3O)c3ccc(O)cc3)C(=O)N2[C@H]1C(=O)O (some centres unmarked) [C] | 0.06 (≈ 0.0792 µM) | 2 (≈ 2.64 µM) | 1 (≈ 1.32 µM) | 0.5 (≈ 0.66 µM) | 0.25 (≈ 0.33 µM) | 0.25 (≈ 0.33 µM) | 0.12 (≈ 0.158 µM) | 0.25 (≈ 0.33 µM) | 1 (≈ 1.32 µM) | 1 (≈ 1.32 µM) | 17 | ~3
5 | CC1(C)S[C@@H]2[C@H](NC(=O)C(NC(=O)Nc3cnc(Nc4ccc(S(=O)(=O)NC5=NCCN5)cc4)nc3O)c3ccc(O)cc3)C(=O)N2[C@H]1C(=O)O (some centres unmarked) [B] | 0.06 (≈ 0.081 µM) | 1 (≈ 1.35 µM) | 4 (≈ 5.4 µM) | 0.1 (≈ 0.135 µM) | 0.5 (≈ 0.675 µM) | 0.25 (≈ 0.337 µM) | 0.25 (≈ 0.337 µM) | 0.5 (≈ 0.675 µM) | 2 (≈ 2.7 µM) | 2 (≈ 2.7 µM) | 1.9 | 0.7
6 | CC1(C)S[C@@H]2[C@H](NC(=O)C(NC(=O)Nc3cnc(Nc4ccc(S(=O)(=O)NC5=NCCO5)cc4)nc3O)c3ccc(O)cc3)C(=O)N2[C@H]1C(=O)O (some centres unmarked) [D] | 0.06 (≈ 0.0809 µM) | 1 (≈ 1.35 µM) | 4 (≈ 5.39 µM) | 1 (≈ 1.35 µM) | 0.5 (≈ 0.674 µM) | 0.25 (≈ 0.337 µM) | 0.25 (≈ 0.337 µM) | 0.25 (≈ 0.337 µM) | 2 (≈ 2.7 µM) | 1 (≈ 1.35 µM) |  | ~2
7 | CC1(C)S[C@@H]2[C@H](NC(=O)C(NC(=O)Nc3cnc(Nc4ccc(S(=O)(=O)NCC(N)=O)cc4)nc3O)c3ccc(O)cc3)C(=O)N2[C@H]1C(=O)O (some centres unmarked) [G] | 0.06 (≈ 0.0822 µM) | 1 (≈ 1.37 µM) | 2 (≈ 2.74 µM) | 1 (≈ 1.37 µM) | 0.5 (≈ 0.685 µM) | 0.25 (≈ 0.343 µM) | 0.12 (≈ 0.164 µM) | 0.5 (≈ 0.685 µM) | 2 (≈ 2.74 µM) | 1 (≈ 1.37 µM) |  | ~5
8 | CC1(C)S[C@@H]2[C@H](NC(=O)C(NC(=O)Nc3cnc(Nc4ccc(S(=O)(=O)NC5=NCCCN5)cc4)nc3O)c3ccc(O)cc3)C(=O)N2[C@H]1C(=O)O (some centres unmarked) [A] | 0.06 (≈ 0.0795 µM) | 1 (≈ 1.32 µM) | 2 (≈ 2.65 µM) | 0.5 (≈ 0.662 µM) | 0.25 (≈ 0.331 µM) | 0.5 (≈ 0.662 µM) | 0.25 (≈ 0.331 µM) | 0.5 (≈ 0.662 µM) | 2 (≈ 2.65 µM) | 1 (≈ 1.32 µM) | 2.1 | 0.6
